Assay results as given in ChEMBL document CHEMBL1158512, “The antimicrobial activity of compounds from the leaf and stem of Vitis amurensis against two oral pathogens” (2010).
Converted amounts (≈) assume the structure as drawn. The source made the active and inactive calls. The rule behind the calls is not given here.

What was measured:
Type in all cases: functional
[1] = system: Streptococcus sanguinis; test: Antimicrobial activity against Streptococcus sanguinis NCTC 9811 assessed as total bacterial adherence inhibition
[2] = system: Streptococcus sanguinis; test: Antimicrobial activity against Streptococcus sanguinis NCTC 9811 at 200 ug/ml after 20 hrs by disk diffusion method; settings: for zone of inhibition at 200 µg/mL: NCTC 9811, 20 h, read-out: IZ
[3] = system: Streptococcus mutans; test: Antimicrobial activity against Streptococcus mutans KCTC 3065 after 20 hrs by plate dilution method; settings: KCTC 3065, 20 h
[4] = system: Streptococcus sanguinis; test: Antimicrobial activity against Streptococcus sanguinis NCTC 9811 at 600 ug/ml after 20 hrs by disk diffusion method; settings: for zone of inhibition at 600 µg/mL: NCTC 9811, 20 h, read-out: IZ
[5] = system: Streptococcus mutans; test: Antimicrobial activity against Streptococcus mutans KCTC 3065 at 50 ug/ml after 20 hrs by disk diffusion method; settings: for zone of inhibition at 50 µg/mL: KCTC 3065, 20 h, read-out: IZ
[6] = system: Streptococcus sanguinis; test: Antimicrobial activity against Streptococcus sanguinis NCTC 9811 at 400 ug/ml after 20 hrs by disk diffusion method; settings: for zone of inhibition at 400 µg/mL: NCTC 9811, 20 h, read-out: IZ
[7] = system: Streptococcus sanguinis; test: Antimicrobial activity against Streptococcus sanguinis NCTC 9811 at 100 ug/ml after 20 hrs by disk diffusion method; settings: for zone of inhibition at 100 µg/mL: NCTC 9811, 20 h, read-out: IZ
[8] = system: Streptococcus mutans; test: Antimicrobial activity against Streptococcus mutans KCTC 3065 at 600 ug/ml after 20 hrs by disk diffusion method; settings: for zone of inhibition at 600 µg/mL: KCTC 3065, 20 h, read-out: IZ
[9] = system: Streptococcus sanguinis; test: Antimicrobial activity against Streptococcus sanguinis NCTC 9811 at 50 ug/ml after 20 hrs by disk diffusion method; settings: for zone of inhibition at 50 µg/mL: NCTC 9811, 20 h, read-out: IZ
[10] = system: Streptococcus mutans; test: Antimicrobial activity against Streptococcus mutans KCTC 3065 at 400 ug/ml after 20 hrs by disk diffusion method; settings: for zone of inhibition at 400 µg/mL: KCTC 3065, 20 h, read-out: IZ
[11] = system: Streptococcus mutans; test: Antimicrobial activity against Streptococcus mutans KCTC 3065 assessed as total bacterial adherence inhibition
[12] = system: Streptococcus mutans; test: Antimicrobial activity against Streptococcus mutans KCTC 3065 at 200 ug/ml after 20 hrs by disk diffusion method; settings: for zone of inhibition at 200 µg/mL: KCTC 3065, 20 h, read-out: IZ
[13] = system: Streptococcus sanguinis; test: Antimicrobial activity against Streptococcus sanguinis NCTC 9811 after 20 hrs by plate dilution method; settings: NCTC 9811, 20 h
[14] = system: Streptococcus mutans; test: Antimicrobial activity against Streptococcus mutans KCTC 3065 at 100 ug/ml after 20 hrs by disk diffusion method; settings: for zone of inhibition at 100 µg/mL: KCTC 3065, 20 h, read-out: IZ

| Structure (SMILES) | MIC [3] | MIC [13] | Activity [1] | zone of inhibition at 200 µg/mL [2] | MBC [3] | zone of inhibition at 600 µg/mL [4] | zone of inhibition at 50 µg/mL [5] | zone of inhibition at 400 µg/mL [6] | zone of inhibition at 100 µg/mL [7] | zone of inhibition at 600 µg/mL [8] | zone of inhibition at 50 µg/mL [9] | zone of inhibition at 400 µg/mL [10] | Concentration for total adherence inhibition [11] | zone of inhibition at 200 µg/mL [12] | MBC [13] | zone of inhibition at 100 µg/mL [14] | inhibition zone (IZ) [5] | inhibition zone (IZ) [7] | inhibition zone (IZ) [9] | also measured |
| --- | --- | --- | --- | --- | --- | --- | --- | --- | --- | --- | --- | --- | --- | --- | --- | --- | --- | --- | --- | --- |
| Oc1ccc(C2[C@H]3c4cc(O)cc(O)c4[C@@H](c4ccc(O)cc4)[C@@H]2c2cc(O)cc(O)c23)cc1 (stereo not given in full) | 100 µg/mL (≈ 220 µM) | > 400 µg/mL | >200 µg/mL | < 11 mm | 200 µg/mL (≈ 440 µM) | < 15 mm |  | < 15 mm |  | 20 mm |  | < 15 mm | 100 µg/mL | < 15 mm | > 400 µg/mL | < 11 mm | inactive | inactive | inactive |  |
| OC[C@H]1OC(Oc2cc(O)cc(/C=C/c3ccc(O)cc3)c2)[C@H](O)[C@@H](O)[C@@H]1O (stereo not given in full) |  |  |  |  |  |  |  |  |  |  |  |  |  |  |  |  | inactive | inactive | inactive | inhibition zone (IZ) [2]: inactive; inhibition zone (IZ) [4]: inactive; inhibition zone (IZ) [6]: inactive; inhibition zone (IZ) [8]: inactive; inhibition zone (IZ) [10]: inactive; inhibition zone (IZ) [12]: inactive; inhibition zone (IZ) [14]: inactive |
| OC[C@H]1O[C@@H](Oc2cc(O)cc(/C=C/c3ccc(O)c(O)c3)c2)[C@H](O)[C@@H](O)[C@@H]1O |  |  |  |  |  |  |  |  |  |  |  |  |  |  |  |  | inactive | inactive | inactive | inhibition zone (IZ) [2]: inactive; inhibition zone (IZ) [4]: inactive; inhibition zone (IZ) [6]: inactive; inhibition zone (IZ) [8]: inactive; inhibition zone (IZ) [10]: inactive; inhibition zone (IZ) [12]: inactive; inhibition zone (IZ) [14]: inactive |
| Oc1ccc([C@H]2c3c(O)cc(O)cc3[C@H]3c4c(cc(O)c5c4[C@H]2[C@@H](c2ccc(O)cc2)[C@@H]5c2cc(O)cc(O)c2)O[C@@H]3c2ccc(O)cc2)cc1 [AMURESIN G] | 50 µg/mL (≈ 73.5 µM) | 12.5 µg/mL (≈ 18.4 µM) | 50 µg/mL | < 15 mm | 50 µg/mL (≈ 73.5 µM) | < 15 mm |  | < 15 mm | < 15 mm | < 15 mm | < 11 mm | < 15 mm | 25 µg/mL | < 11 mm | 100 µg/mL (≈ 147 µM) | < 11 mm | inactive |  |  |  |
| CC[C@H]1OC(=O)[C@H](C)[C@@H](O[C@H]2C[C@@](C)(OC)[C@@H](O)[C@H](C)O2)[C@H](C)[C@@H](O[C@@H]2O[C@H](C)C[C@H](N(C)C)[C@H]2O)[C@](C)(O)C[C@@H](C)C(=O)[C@H](C)[C@@H](O)[C@]1(C)O [ERYTHROMYCIN] |  | 12.5 µg/mL (≈ 17 µM) | 25 µg/mL |  | < 1.5 µg/mL |  |  |  |  |  |  |  | 0.78 µg/mL |  | 50 µg/mL (≈ 68.1 µM) |  |  |  |  |  |

More lines, main results first:

| MIC [3] | MIC [13] | Structure (SMILES) | Activity [1] | zone of inhibition at 200 µg/mL [2] | MBC [3] | zone of inhibition at 600 µg/mL [4] | zone of inhibition at 50 µg/mL [5] | zone of inhibition at 400 µg/mL [6] | zone of inhibition at 100 µg/mL [7] | zone of inhibition at 600 µg/mL [8] | zone of inhibition at 50 µg/mL [9] | zone of inhibition at 400 µg/mL [10] | Concentration for total adherence inhibition [11] | zone of inhibition at 200 µg/mL [12] | MBC [13] | zone of inhibition at 100 µg/mL [14] | inhibition zone (IZ) [5] | inhibition zone (IZ) [7] | inhibition zone (IZ) [9] | also measured |
| --- | --- | --- | --- | --- | --- | --- | --- | --- | --- | --- | --- | --- | --- | --- | --- | --- | --- | --- | --- | --- |
| 25 µg/mL (≈ 55 µM) | 12.5 µg/mL (≈ 27.5 µM) | Oc1ccc(/C=C/c2cc(O)cc3c2[C@H](c2cc(O)cc(O)c2)[C@@H](c2ccc(O)cc2)O3)cc1 | 50 µg/mL | 20 mm | 50 µg/mL (≈ 110 µM) | 20 mm | < 15 mm | 20 mm | 20 mm | > 20 mm | < 15 mm | > 20 mm | 25 µg/mL | 20 mm | 50 µg/mL (≈ 110 µM) | < 15 mm |  |  |  |  |
| 50 µg/mL (≈ 205 µM) | 50 µg/mL (≈ 205 µM) | Oc1cc(O)cc(/C=C/c2ccc(O)c(O)c2)c1 [PICEATANNOL] | 50 µg/mL | 20 mm | 100 µg/mL (≈ 409 µM) | > 20 mm | < 15 mm | > 20 mm | < 15 mm | > 20 mm | < 15 mm | > 20 mm | 50 µg/mL | 20 mm | 100 µg/mL (≈ 409 µM) | < 15 mm |  |  |  |  |
| 50 µg/mL (≈ 219 µM) | 25 µg/mL (≈ 110 µM) | Oc1ccc(/C=C/c2cc(O)cc(O)c2)cc1 [RESVERATROL] | 100 µg/mL | < 15 mm | 50 µg/mL (≈ 219 µM) | 20 mm | < 11 mm | < 15 mm | < 11 mm | > 20 mm | < 11 mm | 20 mm | 25 µg/mL | 20 mm | 100 µg/mL (≈ 438 µM) | < 15 mm |  |  |  |  |
